GI50 and TGI data for 14 compounds are collected here from PubChem BioAssay (NCI).

Common to all, as to experiment: inhibition of tumour cell growth, NCI panel, 48 h
Assay [1] relates to SF-295 CNS.
Assay [2] relates to A549 NSCLC.
Assay [3] relates to SW-620 colon.
Assay [4] relates to RXF 393 renal.
The subject of assay [5] is KM20L2 colon.
The test system of assay [6] is IGROV1 ovarian.
The subject of assay [7] is ACHN renal.
Assay [8] has as its system HT29 colon.
Assay [9] relates to OVCAR-5 ovarian.
The test system of assay [10] is XF 498 CNS.
The test system of assay [11] is DLD-1 colon.

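Cells were grown in 96-well plates and exposed to each compound for 48 hours at five concentrations; endpoints were interpolated linearly between bracketing concentrations, or set to the highest concentration if not reached. At the GI50, growth is halved. TGI is the concentration that stops growth completely.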 Where only a bound is given, the exact number is not on record here.

As to `O=C([CH-]C(=O)c1ccccc1)c1ccccc1.O=C([CH-]C(=O)c1ccccc1)c1ccccc1.[O]=[U+2]=[O]`, the GI50 in assay [1] was 1.81 µM; in [2], 3.17 µM; in [3] it was 3.15 µM; in assay [4], 2.35 µM; in [5], 2.65 µM; in [6], 3.33 µM. Besides, the GI50 is 3.39 µM in assay [7] and 2.39 µM in assay [8]. Besides, the TGI in [1] was 4.29 µM; in [2] it was 18.7 µM; in assay [3], above 100 µM; in assay [4], 6.22 µM; in assay [5] it was 12.4 µM; in [6] it was 12.6 µM. The TGI in [7] was determined as 11.9 µM; in assay [8], 7.71 µM.

In the case of `Cc1cn([C@H]2C[C@](C)(CO)N(C)O2)c(=O)[nH]c1=O`, the TGI in assay [1], in assay [2], in assay [9], in assay [3], in assay [4] and in assay [6] was above 100 µM each time. For the same compound, the TGI in [7] and in assay [8] was above 100 µM in each case.

Take `O=[N+]([O-])c1ccc(C2=Nc3ccccc3SC(c3ccccc3)C2)cc1` (stereo unspecified): the TGI in assay [1] stood at 46.3 µM; in assay [2], 51.2 µM; in assay [9], 36.6 µM; in [3] it was 27.8 µM; in assay [4], 40 µM; in assay [5], 32.8 µM. In addition, the TGI in assay [6] was determined as 33.3 µM; in [10], 31.6 µM; in assay [11] it was 48.3 µM; in assay [7], 36.2 µM.

In the case of `CCOC(=O)C1CN(C2CC2)CCC1=O` (stereo unspecified), the TGI in assay [1], in [2], in [9], in assay [3], in assay [4] and in assay [6] was above 100 µM throughout. The TGI in [7] and in [8] was above 100 µM each time.

Consider `N#CCCN(CCC#N)c1ccc(/C=C2\SC(=S)NC2=O)cc1Br`, for which the TGI in assay [1], in assay [2], in [9], in assay [3], in assay [4] and in assay [6] was above 100 µM in each case. Besides, the TGI in [7] and in assay [8] was above 100 µM each time.

For the compound `Cc1cc(/N=C/c2ccc(C#N)cc2)n(-c2ccccc2)n1`, the TGI in assay [1], in assay [2], in assay [9], in assay [3], in [4] and in assay [6] was above 100 µM throughout. The TGI in [7] and in assay [8] was above 100 µM throughout.

In the case of `CCCCC#CS(=O)(=O)C(F)(F)F`, the TGI in assay [1] was above 100 µM; in [2] it was above 100 µM; in [9], above 100 µM; in [3], above 100 µM; in assay [4] it was 78.1 µM; in [5] it was above 100 µM. Also, the TGI in [6] is above 100 µM; in assay [10], above 94.7 µM; in [11], above 100 µM; in assay [8], above 100 µM.

With `CC1=CC(=O)CC2(C)CCC(C(C)CC(=O)CC(C)C)CC12` (stereo unspecified), the TGI in [1] was above 100 µM; in assay [2] it was 34.8 µM; in assay [9], above 100 µM; in assay [3], 46 µM; in [4], above 100 µM; in [6], 72.5 µM. For the same compound, the TGI was found to be 31.3 µM in [7] and 76.8 µM in assay [8].

Turning to `O=C1CS(=O)C23c4cc5ccccc5n4CCC2CCCN13` (stereo unspecified), the TGI in assay [1], in assay [2], in assay [9], in [3], in assay [4] and in assay [6] was above 100 µM each time. The TGI in assay [7] and in [8] was above 100 µM in each case.

In the case of `COC(=O)C1=C(C)NC(C)=C([N+](=O)[O-])C1c1cccc(N=O)c1` (stereo unspecified), the TGI in [1] was determined as 51.5 µM; in assay [2], 40.1 µM; in [9], 30.5 µM; in [3], 13.3 µM; in assay [4], 27.6 µM; in assay [6] it was 29.5 µM. For the same compound, the results for the TGI in assay [7] and in assay [8] were 24.8 µM and 33.1 µM, respectively.

In the case of `C[C@]12CC[C@H](O)C=C1CC[C@@H]1[C@@H]2CC[C@]2(C)C(c3ccc(=O)oc3)CC[C@]12O` (stereo partly specified), the TGI in assay [1] was 0.0289 µM; in assay [2], 0.0172 µM; in assay [9], 0.321 µM; in assay [3], 0.362 µM; in assay [4] it was below 0.0125 µM; in assay [5], 0.148 µM. For the same compound, the TGI in assay [6] was 0.164 µM; in assay [10], 0.0505 µM; in assay [11], 0.0392 µM; in assay [8] it was 0.293 µM.

`COc1ccc(N=C2C(=S)N(c3ccc(OC)cc3)/C(=N/S(=O)(=O)c3ccccc3)N2c2ccccc2)cc1`: the TGI was above 49.5 µM in assay [1]; above 73.1 µM in assay [2]; 32 µM in assay [9]; 16.3 µM in assay [3]; 16 µM in assay [4]; 28.1 µM in assay [6]. Besides, the TGI in [7] was 21.7 µM; in [8] it was above 64.4 µM.

On to `CC1=C[C@@H](C)C[C@]2(C)CC[C@H](O2)[C@]23CC[C@](C(=O)O)(C[C@H](O2)[C@@H]2O[C@@](C)(CC2=O)[C@@H](O)[C@H]2CC[C@@]4(CCC[C@@H](O4)[C@H](C)C(=O)O[C@H]4C[C@H]([C@]5(O)OCC[C@H](C)[C@@H]5O)O[C@H]4C=C1)O2)O3`, for which the TGI in assay [1], in assay [2], in assay [9], in assay [3], in [4] and in assay [6] was above 10 µM in each case. The TGI in assay [7] and in assay [8] was above 10 µM in each case.

Turning to `O=C(CNCc1ccccc1)Oc1c(Cl)c(Cl)c(Cl)c(Cl)c1Cl`, the TGI in [1] is 92.9 µM; in assay [2], 69.1 µM; in assay [9], above 100 µM; in assay [3], 84.5 µM; in [4], above 100 µM; in assay [6], above 100 µM. In addition, the TGI in [7] is 51.1 µM; in assay [8], above 100 µM.
